Data on 31 molecules can be found in patent publication US10590085B2, “Heterocyclic amides as kinase inhibitors” (GlaxoSmithKline Intellectual Property Development Limited, priority 2015, dated 2020).

The assay relates to human monocytic leukemia U937 cells. Description: necroptosis assay in U937 cells. It is filed as cell-based. The following applies: Homo sapiens, U-937, U937 cells; viability by cellular ATP (Cell Titer-Glo); read-out: mean pIC50, inhibition of necrosis in U937 cells (converted). As for the experimental part: The efficacy of RIP1 inhibitors can be tested […] in vitro using a human monocytic leukemia U937 or mouse L929 fibrosarcoma cells in a necroptosis assay. As determined using the method described in He, S. et al. 2009. Cell 137(6):1100-1111 and International Patent Appln. No. PCT/IB2014/059004, now, International Patent Appln. Pub.
Viability was measured by quantitating cellular levels of ATP using the Cell Titer-Glo kit. All data are means±standard deviation of the mean.
(In general: In ATP-based viability assays light output follows the ATP content of the culture.)
As to `O=C(C1CCN(c2ncc(F)cn2)CC1)N1N=CCC1c1ccccc1` (stereo not shown) [Example 6, (1-(5-fluoropyrimidin-2-yl)piperidin-4-yl)(5-phenyl-4,5-dihydro-1H-pyrazol-1-yl)methanone], the IC50 was 1 to 100 nM.
Turning to `O=C(C1CCN(c2ncc(F)cn2)CC1)N1N=CCC1c1cncc(F)c1` (stereo not shown) [Example 9], the IC50 was 1 to 100 nM.
`O=C(C1CCN(c2ncc(F)cn2)CC1)N1N=CC[C@H]1c1cncc(F)c1` [Example 10, (S)-(5-(5-fluoropyridin-3-yl)-4,5-dihydro-1H-pyrazol-1-yl)(1-(5-fluoro-pyrimidin-2-yl)piperidin-4-yl)methanone]: the IC50 was 1 to 100 nM.
For `CC(C)(C)C(=O)N1N=CCC1c1cncc(F)c1` (stereo not shown) [Example 14, 1-(5-(5-fluoro-pyridin-3-yl)-4,5-dihydro-1H-pyrazol-1-yl)-2,2-dimethyl-propan-1-one] the value was 1 to 100 nM; for `O=C(C1CCN(c2ccccc2)CC1)N1N=CCC1c1ccccc1` (stereo not shown) [Example 18, (5-phenyl-4,5-dihydro-1H-pyrazol-1-yl)(1-phenylpiperidin-4-yl)-methanone], 1 to 100 nM.
The result for `O=C(C1CCN(c2ccccc2)CC1)N1N=CC[C@H]1c1ccccc1` [Example 19, (S)-(5-phenyl-4,5-dihydro-1H-pyrazol-1-yl)(1-phenyl-piperidin-4-yl)-methanone] reads 1 to 100 nM; that for `O=C(C1CCCC1)N1N=CCC1c1ccccc1` (stereo not shown) [Example 22, cyclopentyl(5-phenyl-4,5-dihydro-1H-pyrazol-1-yl)methanone], 1 to 100 nM.
The result for `Cc1cccc(C(=O)N2N=CCC2c2ccccc2)c1` (stereo not shown) [Example 23, (5-phenyl-4,5-dihydro-1H-pyrazol-1-yl)(m-tolyl) methanone] reads approximately 501 nM; that for `CC(C)(C)C(=O)N1N=CC[C@H]1c1cccnc1` [Example 42, (S)-2,2-dimethyl-1-(5-(pyridin-3-yl)-4,5-dihydro-1H-pyrazol-1-yl)-propan-1-one], approximately 251 nM.
In the case of `CC(C)(C)C(=O)N1N=CCC1c1cccc(Cl)c1` (stereo not drawn) [Example 43, 1-(5-(3-chlorophenyl)-4,5-dihydro-1H-pyrazol-1-yl)-2,2-dimethyl propan-l-one], the IC50 is 1 to 100 nM.
The result for `Cc1ccc(C2CC=NN2C(=O)C(C)(C)C)c(F)c1` (stereo not shown) [Example 53, 1-(5-(2-fluoro-4-methylphenyl)-4,5-dihydro-1H-pyrazol-1-yl)-2,2-dimethyl-propan-1-one] reads 1 to 100 nM.
Regarding `Cc1ccc(C2CC=NN2C(=O)C(C)(C)C)cc1F` (stereo not shown) [Example 54, 1-(5-(3-fluoro-4-methylphenyl)-4,5-dihydro-1H-pyrazol-1-yl)-2,2-dimethyl-propan-1-one], the IC50 is 1 to 100 nM.
For `Cc1ccc(C2CC=NN2C(=O)C(C)(C)C)cc1` (stereo not shown) [Example 58, 2,2-dimethyl-1-(5-(p-tolyl)-4,5-dihydro-1H-pyrazol-1-yl)propan-1-one] the value was 1 to 100 nM.
Turning to `Cc1ccccc1C1CC=NN1C(=O)C(C)(C)C` (stereo not shown) [Example 60, 2,2-dimethyl-1-(5-(o-tolyl)-4,5-dihydro-1H-pyrazol-1-yl)propan-1-one], the IC50 is 1 to 100 nM.
In the case of `O=C(c1ccccc1)N1N=CCC1c1ccccc1` (stereo not shown) [Example 64, phenyl(5-phenyl-4,5-dihydro-1H-pyrazol-1-yl)-methanone 2,2,2-trifluoroacetate], the IC50 was approximately 316 nM.
For `CC(C)(C)C(=O)N1N=CCC1c1ccc(Cl)cc1` (stereo not shown) [Example 65, 1-(5-(4-chloro-phenyl)-4,5-dihydro-1H-pyrazol-1-yl)-2,2-dimethyl-propan-1-one] the value was 1 to 100 nM.
In the case of `CC(C)(C)C(=O)N1N=CCC1c1cccc(F)c1` (stereo not shown) [Example 67, 1-(5-(3-fluoro-phenyl)-4,5-dihydro-1H-pyrazol-1-yl)-2,2-dimethylpropan-1-one 2,2,2-trifluoroacetate], the IC50 was 1 to 100 nM.
For `Cc1cc(F)cc(C2CC=NN2C(=O)C(C)(C)C)c1` (stereo not shown) [Example 76, 1-(5-(3-fluoro-5-methylphenyl)-4,5-dihydro-1H-pyrazol-1-yl)-2,2-dimethyl-propan-1-one], the IC50 is 1 to 100 nM.
The result for `CC(C)(C)C(=O)N1N=CC[C@H]1c1ccc(C#N)cc1` [Example 79, (S)-4-(1-pivaloyl-4,5-dihydro-1H-pyrazol-5-yl)-benzonitrile] reads 1 to 100 nM; that for `CC(C)(C)C(=O)N1N=CCC1c1cccc(C#N)c1` (stereo not shown) [Example 80, 3-(1-pivaloyl-4,5-dihydro-1H-pyrazol-5-yl)benzonitrile], 1 to 100 nM.
The result for `CC1=NN(C(=O)C(C)(C)C)C(c2ccccc2)C1` (stereo not shown) [Example 81, 2,2-dimethyl-1-(3-methyl-5-phenyl-4,5-dihydro-1H-pyrazol-1-yl)-propan-1-one] reads approximately 631 nM; that for `CC1=NN(C(=O)C2CCN(c3ncc(F)cn3)CC2)C(c2ccccc2)C1` (stereo not shown) [Example 87, (1-(5-fluoro-pyrimidin-2-yl)-piperidin-4-yl)(3-methyl-5-phenyl-4,5-dihydro-1H-pyrazol-1-yl)-methanone], 1 to 100 nM; that for `O=C(c1cccc(Cl)n1)N1CCC(C(=O)N2N=CCC2c2ccccc2)CC1` (stereo not shown) [Example 105, (1-(6-chloro-picolinoyl)piperidin-4-yl)(5-phenyl-4,5-dihydro-1H-pyrazol-1-yl)methanone], 1 to 100 nM.
For `O=C(c1ccc(F)cn1)N1CCC(C(=O)N2N=CCC2c2ccccc2)CC1` (stereo not shown) [Example 108, (1-(5-fluoro-picolinoyl)piperidin-4-yl)(5-phenyl-4,5-dihydro-1H-pyrazol-1-yl)methanone] the value was 1 to 100 nM; for `O=C(c1nccs1)N1CCC(C(=O)N2N=CCC2c2ccccc2)CC1` (stereo not shown) [Example 112, (5-phenyl-4,5-dihydro-1H-pyrazol-1-yl)(1-(thiazole-2-carbonyl)piperidin-4-yl)methanone], 1 to 100 nM; for `O=C(c1cocn1)N1CCC(C(=O)N2N=CCC2c2ccccc2)CC1` (stereo not shown) [Example 114, oxazol-4-yl(4-(5-phenyl-4,5-dihydro-1H-pyrazole-1-carbonyl)piperidin-1-yl)methanone], 1 to 100 nM.
For the molecule `Cc1ccc(C(=O)N2CCC(C(=O)N3N=CCC3c3ccccc3)CC2)s1` (stereo not shown) [Example 122, (5-methylthiophen-2-yl)(4-(5-phenyl-4,5-dihydro-1H-pyrazole-1-carbonyl)piperidin-1-yl)methanone], the IC50 was 1 to 100 nM.
Turning to `Cc1ncc(C(=O)N2CCC(C(=O)N3N=CCC3c3ccccc3)CC2)s1` (stereo not shown) [Example 124, (2-methylthiazol-5-yl)(4-(5-phenyl-4,5-dihydro-1H-pyrazole-1-carbonyl)piperidin-1-yl)methanone], the IC50 is 1 to 100 nM.
With `O=C(c1ccns1)N1CCC(C(=O)N2N=CCC2c2ccccc2)CC1` (stereo not shown) [Example 125, isothiazol-5-yl(4-(5-phenyl-4,5-dihydro-1H-pyrazole-1-carbonyl)piperidin-1-yl)methanone], the IC50 was 1 to 100 nM.
For `O=C(c1ccc(F)cc1)N1CCC(C(=O)N2N=CCC2c2ccccc2)CC1` (stereo not shown) [Example 130, (1-(4-fluoro-benzoyl)piperidin-4-yl)(5-phenyl-4,5-dihydro-1H-pyrazol-1-yl)methanone] the value was 1 to 100 nM; for `O=C(c1ccc(F)cc1F)N1CCC(C(=O)N2N=CCC2c2ccccc2)CC1` (stereo not shown) [Example 131, (1-(2,4-difluorobenzoyl)piperidin-4-yl)(5-phenyl-4,5-dihydro-1H-pyrazol-1-yl)-methanone], 1 to 100 nM.
